Test results reported in US6376426B1, “Herbicidal 3-(heterocycl-1-yl)-uracils” (BASF Aktiengesellschaft, priority 1999, dated 2002).

Tests used:
Format in all cases: in vivo
Zea mays [1] = assay: Pre-emergence herbicidal test, ZEAMX; parameters: key to herbicidal effect (0-9 scale) ZEAMX / herbicidal rating ZEAMX: A rating 0 indicates growth as untreated control; a rating 9 indicates death; conditions: for herbicidal effect (0-9 scale) ZEAMX: PRE, 21 days after spraying
Procedure: (§1) To evaluate their herbicidal activity, compounds according to the invention are tested using a representative range of plants:
(§2) The pre-emergence tests involve spraying a liquid formulation of the compound onto the soil in which the seeds of the plant species mentioned above has recently been sown.
(§3) The soil used in the tests is a prepared horticultural loam. The formulations used in the tests are prepared from solutions of the test compounds in acetone containing 0.4% by weight of an alkylphenol/ethylene oxide condensate available under the trade mark TRITON X-155. […] In these tests untreated sown soil are used as controls.
(§4) The herbicidal effects of the test compounds are assessed visually twenty-one days after spraying the foliage and the soil and are recorded on a 0-9 scale. A rating 0 indicates growth as untreated control, a rating 9 indicates death. An increase of 1 unit on the linear scale approximates to a 10% increase in the level of effect.

Galium aparine [2] = assay: Pre-emergence herbicidal test, GALAP; conditions: PRE, 21 days after spraying
Procedure: as §1, §2, §3, §4

Ambrosia = assay: Pre-emergence herbicidal test, Ambrosia; conditions: 100 g/ha
Procedure: as §2, §3, §4

Stellaria media [3] = assay: Pre-emergence herbicidal test, STEME; parameters: key to herbicidal effect (0-9 scale) STEME / herbicidal rating STEME: A rating 0 indicates growth as untreated control; a rating 9 indicates death; conditions: PRE, 21 days after spraying
Procedure: as §1, §2, §3, §4

Cyperus = assay: Pre-emergence herbicidal test, Cyperus; conditions: 100 g/ha
Procedure: as §2, §3, §4

Abutilon theophrasti [4] = assay: Pre-emergence herbicidal test, ABUTH; parameters: key to herbicidal effect (0-9 scale) ABUTH / herbicidal rating ABUTH: A rating 0 indicates growth as untreated control; a rating 9 indicates death; conditions: for herbicidal effect (0-9 scale) ABUTH: PRE, 21 days after spraying
Procedure: as §1, §2, §3, §4

Alopecurus myosuroides [5] = assay: Pre-emergence herbicidal test, ALOMY; conditions: PRE, 21 days after spraying
Procedure: as §1, §2, §3, §4

Galium aparine [6] = assay: Post-emergence herbicidal test, GALAP; parameters: key to herbicidal effect (0-9 scale) GALAP / herbicidal rating GALAP: A rating 0 indicates growth as untreated control; a rating 9 indicates death; conditions: for herbicidal effect (0-9 scale) GALAP: POST, 21 days after spraying
Procedure: as §1
(§5) […] After spraying, the plants are placed on greenhouse benches and are cared for in the usual manner, commensurate with conventional greenhouse practices.
as §4

[7] = test system: representative range of plants; assay: Herbicidal activity, pre- and post-emergence, overall; conditions: both in pre- and post-emergence
Procedure: as §1, §2
The soil used in the tests is a prepared horticultural loam. The formulations used in the tests are prepared from solutions of the test compounds in acetone containing 0.4% by weight of an alkylphenol/ethylene oxide condensate available under the trade mark TRITON X-155. These acetone solutions are diluted with water and the resulting formulations applied at dosage levels corresponding to 1000 g and 250 g/ha of active material per hectare in a volume equivalent to 900 litres per hectare. In these tests untreated sown soil are used as controls.
These acetone solutions are diluted with water and the resulting formulations applied at dosage levels equivalent to about 1000, 800, 400, 250 or 100 g/ha per hectare of test compound per pot. After spraying, the plants are placed on greenhouse benches and are cared for in the usual manner, commensurate with conventional greenhouse practices.
as §4

Triticum aestivum [8] = assay: Pre-emergence herbicidal test, TRZAW; conditions: 21 days after spraying
Procedure: as §1, §2, §3, §4

Ipomoea hederacea [9] = assay: Post-emergence herbicidal test, IPOHE; parameters: key to herbicidal effect (0-9 scale) IPOHE / herbicidal rating IPOHE: A rating 0 indicates growth as untreated control; a rating 9 indicates death; conditions: POST, 21 days after spraying
Procedure: as §1, §5, §4

Abutilon theophrasti [10] = assay: Post-emergence herbicidal test, ABUTH; parameters: key to herbicidal effect (0-9 scale) ABUTH / herbicidal rating ABUTH: A rating 0 indicates growth as untreated control; a rating 9 indicates death; conditions: POST, 21 days after spraying
Procedure: as §1, §5, §4

Setaria viridis [11] = assay: Pre-emergence herbicidal test, SETVI; parameters: key to herbicidal effect (0-9 scale) SETVI / herbicidal rating SETVI: A rating 0 indicates growth as untreated control; a rating 9 indicates death; conditions: for herbicidal effect (0-9 scale) SETVI: PRE, 21 days after spraying
Procedure: as §1, §2, §3, §4

Triticum aestivum [12] = assay: Post-emergence herbicidal test, TRZAW; parameters: key to herbicidal effect (0-9 scale) TRZAW: A rating 0 indicates growth as untreated control; a rating 9 indicates death; conditions: for herbicidal effect (0-9 scale) TRZAW: POST, 21 days after spraying
Procedure: as §1, §5, §4

Setaria viridis [13] = assay: Post-emergence herbicidal test, SETVI; parameters: key to herbicidal effect (0-9 scale) SETVI / herbicidal rating SETVI: A rating 0 indicates growth as untreated control; a rating 9 indicates death; conditions: for herbicidal effect (0-9 scale) SETVI: POST, 21 days after spraying
Procedure: as §1, §5, §4

Echinochloa crus-galli [14] = assay: Pre-emergence herbicidal test, ECHCG; conditions: 21 days after spraying
Procedure: as §1, §2, §3, §4

Alopecurus myosuroides [15] = assay: Post-emergence herbicidal test, ALOMY; conditions: 21 days after spraying
Procedure: as §1, §5, §4

Stellaria media [16] = assay: Post-emergence herbicidal test, STEME; parameters: key to herbicidal effect (0-9 scale) STEME / herbicidal rating STEME: A rating 0 indicates growth as untreated control; a rating 9 indicates death; conditions: POST, 21 days after spraying
Procedure: as §1, §5, §4

Echinochloa crus-galli [17] = assay: Post-emergence herbicidal test, ECHCG; conditions: 21 days after spraying
Procedure: as §1, §5, §4

[18] = test system: representative range of plants; assay: Post-emergence herbicidal test, summary over the plants tested
Procedure: as §1, §5, §4

Zea mays [19] = assay: Post-emergence herbicidal test, ZEAMX; conditions: 21 days after spraying
Procedure: as §1, §5, §4

Matricaria inodora [20] = assay: Pre-emergence herbicidal test, MATIN; parameters: key to herbicidal effect (0-9 scale) MATIN / herbicidal rating MATIN: A rating 0 indicates growth as untreated control; a rating 9 indicates death; conditions: for herbicidal effect (0-9 scale) MATIN: PRE, 21 days after spraying
Procedure: as §1, §2, §3, §4

[21] = test system: representative range of plants; assay: Pre-emergence herbicidal test, summary over the plants tested; conditions: 400 g/ha
Procedure: as §1, §2, §3, §4

Matricaria inodora [22] = assay: Post-emergence herbicidal test, MATIN; parameters: key to herbicidal effect (0-9 scale) MATIN / herbicidal rating MATIN: A rating 0 indicates growth as untreated control; a rating 9 indicates death; conditions: POST, 21 days after spraying
Procedure: as §1, §5, §4

Ipomoea hederacea [23] = assay: Pre-emergence herbicidal test, IPOHE; parameters: key: A rating 0 indicates growth as untreated control; a rating 9 indicates death; conditions: 21 days after spraying
Procedure: as §1, §2, §3, §4

## Cn1c(C(F)(F)F)cc(=O)n(-n2ncc3cc([N+](=O)[O-])ccc32)c1=O [Example 7]
Zea mays [1]; 100 g/ha
  herbicidal effect (0-9 scale) ZEAMX: 0
Zea mays [1]; 400 g/ha
  herbicidal effect (0-9 scale) ZEAMX: 4
Zea mays [1]; pre-emergence, 100 g/ha
  selectivity in maize: surprisingly good selectivity
Galium aparine [2]; 100 g/ha
  herbicidal effect (0-9 scale) GALAP: 4
Galium aparine [2]; 400 g/ha
  herbicidal effect (0-9 scale) GALAP: 8
Ambrosia
  control of Ambrosia: good control
Stellaria media [3]; 100 g/ha
  herbicidal effect (0-9 scale) STEME: 5
Stellaria media [3]; 400 g/ha
  herbicidal effect (0-9 scale) STEME: 9
Cyperus
  control of Cyperus: good control
Abutilon theophrasti [4]; 100 g/ha
  herbicidal effect (0-9 scale) ABUTH: 9
Abutilon theophrasti [4]; 400 g/ha
  herbicidal effect (0-9 scale) ABUTH: 9
Abutilon theophrasti [4]; pre-emergence, 100 g/ha
  control of Abutilon: good control
Alopecurus myosuroides [5]; 100 g/ha
  herbicidal effect (0-9 scale) ALOMY: 3
Alopecurus myosuroides [5]; 400 g/ha
  herbicidal effect (0-9 scale) ALOMY: 6
Galium aparine [6]; 25 g/ha
  herbicidal effect (0-9 scale) GALAP: 6
Galium aparine [6]; 100 g/ha
  herbicidal effect (0-9 scale) GALAP: 8
Galium aparine [6]; 400 g/ha
  herbicidal effect (0-9 scale) GALAP: 9
Galium aparine [6]; post-emergence, 100 g/ha
  control of Galium aparine: excellent control
[7]
  herbicidal performance: good performance
Triticum aestivum [8]; 100 g/ha
  herbicidal effect (0-9 scale) TRZAW: 1
Triticum aestivum [8]; 400 g/ha
  herbicidal effect (0-9 scale) TRZAW: 4
Ipomoea hederacea [9]; 25 g/ha
  herbicidal effect (0-9 scale) IPOHE: 9
Ipomoea hederacea [9]; 100 g/ha
  herbicidal effect (0-9 scale) IPOHE: 9
Ipomoea hederacea [9]; 400 g/ha
  herbicidal effect (0-9 scale) IPOHE: 9
Abutilon theophrasti [10]; 25 g/ha
  herbicidal effect (0-9 scale) ABUTH: 8
Abutilon theophrasti [10]; 100 g/ha
  herbicidal effect (0-9 scale) ABUTH: 9
Abutilon theophrasti [10]; 400 g/ha
  herbicidal effect (0-9 scale) ABUTH: 9
Setaria viridis [11]; 100 g/ha
  herbicidal effect (0-9 scale) SETVI: 8
Setaria viridis [11]; 400 g/ha
  herbicidal effect (0-9 scale) SETVI: 9
Setaria viridis [11]; pre-emergence, 100 g/ha
  control of Setaria: good control
Triticum aestivum [12]; 25 g/ha
  herbicidal effect (0-9 scale) TRZAW: 0
Triticum aestivum [12]; 100 g/ha
  herbicidal effect (0-9 scale) TRZAW: 1
Triticum aestivum [12]; 400 g/ha
  herbicidal effect (0-9 scale) TRZAW: 3
Triticum aestivum [12]; post-emergence, 100 g/ha
  wheat tolerance: good wheat tolerance
Setaria viridis [13]; 25 g/ha
  herbicidal effect (0-9 scale) SETVI: 8
Setaria viridis [13]; 100 g/ha
  herbicidal effect (0-9 scale) SETVI: 9
Setaria viridis [13]; 400 g/ha
  herbicidal effect (0-9 scale) SETVI: 9
Setaria viridis [13]; post-emergence, 100 g/ha
  control of Setaria: excellent control
Echinochloa crus-galli [14]; 100 g/ha
  herbicidal effect (0-9 scale) ECHCG: 7
Echinochloa crus-galli [14]; 400 g/ha
  herbicidal effect (0-9 scale) ECHCG: 8
Alopecurus myosuroides [15]; 25 g/ha
  herbicidal effect (0-9 scale) ALOMY: 2
Alopecurus myosuroides [15]; 100 g/ha
  herbicidal effect (0-9 scale) ALOMY: 4
Alopecurus myosuroides [15]; 400 g/ha
  herbicidal effect (0-9 scale) ALOMY: 6
Stellaria media [16]; 25 g/ha
  herbicidal effect (0-9 scale) STEME: 4
Stellaria media [16]; 100 g/ha
  herbicidal effect (0-9 scale) STEME: 8
Stellaria media [16]; 400 g/ha
  herbicidal effect (0-9 scale) STEME: 9
Echinochloa crus-galli [17]; 25 g/ha
  herbicidal effect (0-9 scale) ECHCG: 2
Echinochloa crus-galli [17]; 100 g/ha
  herbicidal effect (0-9 scale) ECHCG: 7
Echinochloa crus-galli [17]; 400 g/ha
  herbicidal effect (0-9 scale) ECHCG: 8
[18]; 100 g/ha
  control of all of the broadleaf weeds: excellent control
[18]; dose not given
  control of the weeds: good cross spectrum control on both broadleaf weeds and grasses except Alopecurus
  crop tolerance: no observable crop tolerance
Zea mays [19]; 25 g/ha
  herbicidal effect (0-9 scale) ZEAMX: 2
Zea mays [19]; 100 g/ha
  herbicidal effect (0-9 scale) ZEAMX: 3
Zea mays [19]; 400 g/ha
  herbicidal effect (0-9 scale) ZEAMX: 5
Matricaria inodora [20]; 100 g/ha
  herbicidal effect (0-9 scale) MATIN: 9
Matricaria inodora [20]; 400 g/ha
  herbicidal effect (0-9 scale) MATIN: 9
Matricaria inodora [20]; pre-emergence, 100 g/ha
  control of Matricaria: good control
[21]
  control of the weeds: all of the weeds except Alopecurus were well controlled
Matricaria inodora [22]; 25 g/ha
  herbicidal effect (0-9 scale) MATIN: 7
Matricaria inodora [22]; 100 g/ha
  herbicidal effect (0-9 scale) MATIN: 8
Matricaria inodora [22]; 400 g/ha
  herbicidal effect (0-9 scale) MATIN: 9
Ipomoea hederacea [23]; 100 g/ha
  herbicidal effect (0-9 scale) IPOHE: 7
Ipomoea hederacea [23]; 400 g/ha
  herbicidal effect (0-9 scale) IPOHE: 9
